Assay results reported in ChEMBL document CHEMBL4715854, “Discovery of Roblitinib (FGF401) as a Reversible-Covalent Inhibitor of the Kinase Activity of Fibroblast Growth Factor Receptor 4” (J Med Chem, 2020).

Columns and labels:
[1] = Oral bioavailability in Crl:CD (SD) rat at 3 mg/kg measured upto 24 hrs by LC-MS/MS analysis; type: ADME, organism-based; conditions: in vivo
[2] = AUC in Crl:CD (SD) rat at 3 mg/kg, po measured upto 24 hrs by LC-MS/MS analysis; type: ADME, organism-based; set-up: route oral, dose 3 mg/kg, time <=24; conditions: in vivo
[3] = Volume of distribution at steady state in Crl:CD (SD) rat at 1 mg/kg, iv or 3 mg/kg, po measured upto 24 hrs by LC-MS/MS analysis; type: ADME, organism-based; conditions: in vivo, read-out: Vdss
[4] = Drug metabolism in rat liver microsomes assessed as C-hydroxylation of THN mediated M3 metabolite formation incubated for 60 mins by HPLC/MS analysis; type: ADME, Microsome; conditions: 1 h
[5] = AUC in Crl:CD (SD) rat at 1 mg/kg, iv formulated in PEG200/NMP measured upto 24 hrs by LC-MS/MS analysis; type: ADME, organism-based; set-up: route intravenous, dose 1 mg/kg, time <=24; conditions: in vivo
[6] = Metabolic stability in rat liver S9 fraction assessed as parent compound remaining at 1 uM incubated for 60 mins in presence of NADPH by HPLC/MS analysis; type: ADME, subcellular; conditions: read-out: Stabilty
[7] = Half-life in Crl:CD (SD) rat at 1 mg/kg, iv or 3 mg/kg, po measured upto 24 hrs by LC-MS/MS analysis; type: ADME, organism-based; conditions: in vivo
[8] = Metabolic stability in rat blood at 1 uM assessed as parent compound remaining incubated for 60 mins by HPLC/MS analysis; type: ADME, tissue-based; conditions: read-out: Stabilty
[9] = Metabolic stability in rat liver S9 fraction at 1 uM assessed as parent compound remaining incubated for 60 mins by HPLC/MS analysis; type: ADME, subcellular; conditions: read-out: Stabilty
[10] = Drug metabolism in rat feces assessed as reduction of aldehyde group measured after 20 hrs incubated under anaerobic condition measured by LC-MS analysis; type: ADME, tissue-based
[11] = Drug metabolism in rat liver microsomes assessed as glucuronidation by measuring (2S,3S,4S,5R,6R)-6-((8-(5-cyanopyridin-2-ylcarbamoyl)-5,6,7,8-tetrahydro-1,8-naphthyridin-2-yl)methoxy)-3,4,5-trihydroxytetrahydro-2H-pyran-2-carboxylic acid metabolite formation incubated for 60 mins by HPLC/MS analysis; type: ADME, Microsome; conditions: 1 h
[12] = Permeability of the compound in human Caco-2 cells assessed as compound recovery at 10 uM measured after 2 hrs by LC/MS/MS analysis; type: ADME, cell-based; conditions: read-out: Drug recovery
[13] = Drug metabolism in rat liver microsomes assessed as C-hydroxylation of THN mediated M2 metabolite formation incubated for 60 mins by HPLC/MS analysis; type: ADME, Microsome; conditions: 1 h
[14] = Lipophilicity, log D of the compound in 1-octanol at pH 7.4 by potentiometric titration method; type: physicochemical
[15] = Clearance in Crl:CD (SD) rat at 1 mg/kg, iv or 3 mg/kg, po measured up to 24 hrs by LC-MS/MS analysis; type: ADME, organism-based; conditions: in vivo
[16] = Drug metabolism in rat blood assessed as reduction of aldehyde group measured at 1 uM within 1 hr by LC-MS/MS analysis; type: ADME, tissue-based; conditions: read-out: Drug metabolism
[17] = Metabolic stability in rat liver microsomes assessed as parent compound remaining incubated for 60 mins by HPLC/MS analysis; type: ADME, Microsome; conditions: read-out: Stabilty
[18] = Drug metabolism in human liver microsome assessed as reduction of aldehyde group at 10 mM measured after 15 mins in presence of NADPH by LC-MS analysis; type: ADME; conditions: microsomes, 10000 µM
[19] = Metabolic stability in rat plasma assessed as parent compound remaining at 1 uM incubated for 60 mins by HPLC/MS analysis; type: ADME, cell-free; conditions: read-out: Stabilty
[20] = Drug metabolism in rat liver microsome assessed as reduction of aldehyde group at 10 mM measured after 15 mins in presence of NADPH by LC-MS analysis; type: ADME; conditions: microsomes, 10000 µM
[21] = Plasma concentration in mouse xenografted with human RH41 cells at 30 mg/kg, po by LC-MS/MS analysis; type: ADME, organism-based; conditions: in vivo
[22] = Volume of distribution at steady state in C57BL/6 mouse at 1 mg/kg, iv or 3 mg/kg, po measured upto 24 hrs by LC-MS/MS analysis; type: ADME, organism-based; conditions: in vivo, read-out: Vdss
[23] = Half-life in C57BL/6 mouse at 1 mg/kg, iv or 3 mg/kg, po measured upto 24 hrs by LC-MS/MS analysis; type: ADME, organism-based; conditions: in vivo
[24] = Clearance in C57BL/6 mouse at 1 mg/kg, iv or 3 mg/kg, po measured upto 24 hrs by LC-MS/MS analysis; type: ADME, organism-based; conditions: in vivo
[25] = Plasma concentration in mouse xenografted with human RH30 cells at 30 mg/kg, po by LC-MS/MS analysis; type: ADME, organism-based; conditions: in vivo
[26] = Oral bioavailability in C57BL/6 mouse at 3 mg/kg measured upto 24 hrs by LC-MS/MS analysis; type: ADME, organism-based; conditions: in vivo
[27] = Drug metabolism in human Caco-2 cells assessed as reduction of aldehyde group at 10 uM incubated from 30 to 120 mins by LC-MS/MS analysis; type: ADME, cell-based; conditions: caco-2, 10 µM, time 30-120 min
[28] = Drug metabolism in human Caco-2 cells assessed as oxidation of aldehyde group at 10 uM incubated from 30 to 120 mins by LC-MS/MS analysis; type: ADME, cell-based; conditions: caco-2, 10 µM, time 30-120 min
[29] = Drug metabolism in human Caco-2 cells assessed as depletion of parent compound at 10 uM measured after 1 hr by LC-MS/MS analysis; type: ADME, cell-based; conditions: read-out: Drug degradation
[30] = AUC in C57BL/6 mouse at 0.5 mg/kg, iv measured up to 24 hrs by LC-MS/MS analysis; type: ADME, organism-based; set-up: route intravenous, dose 0.5 mg/kg, time <=24; conditions: in vivo
[31] = AUC in Beagle dog at 0.1 mg/kg, iv by LC-MS/MS analysis; type: ADME, organism-based, Canis lupus familiaris; set-up: dose 0.1 mg/kg; conditions: in vivo
[32] = AUC in Beagle dog at 0.3 mg/kg, po by LC-MS/MS analysis; type: ADME, organism-based, Canis lupus familiaris; set-up: dose 0.3 mg/kg; conditions: in vivo
[33] = Half-life in C57BL/6 mouse at 0.5 mg/kg, iv measured up to 24 hrs by LC-MS/MS analysis; type: ADME, organism-based; conditions: in vivo
[34] = Dose normalized AUC in Crl:CD (SD) rat at 1 mg/kg, iv measured up to 24 hrs by LC-MS/MS analysis; type: ADME, organism-based; conditions: in vivo
[35] = Tmax in Sprague-Dawley rat at 10 to 100 mg/kg, po qd for 10 days by LC-MS/MS analysis; type: ADME, organism-based; conditions: in vivo, dose 10-100 mg/kg, time 10 day
[36] = Clearance in C57BL/6 mouse at 0.5 mg/kg, iv measured up to 24 hrs by LC-MS/MS analysis; type: ADME, organism-based; conditions: in vivo
[37] = AUC (0 to 12 hrs) in C57BL/6 mouse at 30 mg/kg, po BID treated for 6 days measured by LC-MS/MS analysis; type: ADME, organism-based; set-up: route oral, dose 30 mg/kg, time 6 day; conditions: in vivo
[38] = Oral bioavailability in Beagle dog at 0.3 mg/kg by LC-MS/MS analysis; type: ADME, organism-based, Canis lupus familiaris; conditions: in vivo, 0.3 mg/kg
[39] = AUC (0 to 24 hrs) in Crl:CD (SD) rat at 30 mg/kg, po qd treated for 1 day measured by LC-MS/MS analysis; type: ADME, organism-based; set-up: route oral, time 1 day, dose 30 mg/kg; conditions: in vivo
[40] = Thermodynamic solubility of compound in phosphate buffer at pH 6.8 measured after 15 mins by shake-flask method based LC-HRMS analysis; type: physicochemical; conditions: read-out: Therm_solubility
[41] = AUC (0 to 24 hrs) in Crl:CD (SD) rat at 10 mg/kg, po qd treated for 1 day measured by LC-MS/MS analysis; type: ADME, organism-based; set-up: route oral, dose 10 mg/kg, time 1 day; conditions: in vivo
[42] = AUC (0 to 24 hrs) in Crl:CD (SD) rat at 100 mg/kg, po qd treated for 1 day measured by LC-MS/MS analysis; type: ADME, organism-based; set-up: route oral, time 1 day, dose 100 mg/kg; conditions: in vivo
[43] = Half-life in Beagle dog at 0.1 mg/kg, iv or 0.3 mg/kg, po by LC-MS/MS analysis; type: ADME, organism-based, Canis lupus familiaris; conditions: in vivo
[44] = Drug absorption in Sprague-Dawley rat at 10 to 100 mg/kg, po qd for 10 days by LC-MS/MS analysis; type: ADME, organism-based; conditions: in vivo, 240 h, dose 10-100 mg/kg, time 10 day
[45] = Dose normalized AUC in Crl:CD (SD) rat at 3 mg/kg, po measured up to 24 hrs by LC-MS/MS analysis; type: ADME, organism-based; conditions: in vivo
[46] = Volume of distribution at steady state in Beagle dog at 0.1 mg/kg, iv or 0.3 mg/kg, po by LC-MS/MS analysis; type: ADME, organism-based, Canis lupus familiaris; conditions: in vivo, read-out: Vdss
[47] = Plasma concentration in mouse xenografted with human Huh7 cells at 30 mg/kg, po BID administered for 14 days measured 12 hrs post-last dose; type: ADME, organism-based; conditions: time 14 day
[48] = Volume of distribution at steady state in C57BL/6 mouse at 0.5 mg/kg, iv measured up to 24 hrs by LC-MS/MS analysis; type: ADME, organism-based; conditions: in vivo, read-out: Vdss

N#Cc1ccc(NC(=O)N2CCCc3ccc(C=O)nc32)nc1
F ([1]; 3 mg/kg, 24 h): 4% | AUC [2]: 0.054 µM·h | Vd [3]: 3.4 L/kg | Drug metabolism [4]: Metabolite_Detected | AUC [5]: 1.232 µM·h | remaining at 1 h, 1 µM [6]: 1% | half-life [7]: 1.3 h | remaining at 1 h, 1 µM [8]: 22% | remaining at 1 h, 1 µM [9]: 61% | Drug metabolism [10]: Metabolite_Detected | Drug metabolism [11]: Metabolite_Detected | recovery at 2 h, 10 µM [12]: < 10% | Drug metabolism [13]: Metabolite_Detected | logD [14]: 2.9 | clearance [15]: 44 mL/min/kg | metabolised at 1 h, 1 µM [16]: > 50% | remaining at 1 h [17]: 7% | Drug metabolism [18]: Metabolite_Detected | remaining at 1 h, 1 µM [19]: 100% | Drug metabolism [20]: Metabolite_Detected

COCCNc1cc(NC(=O)N2CCCc3cc(CO)c(C=O)nc32)ncc1C#N
concentration [21]: < 40 nM | recovery at 2 h, 10 µM [12]: < 10% | Vd [22]: 1.6 L/kg | half-life [23]: 0.8 h | clearance [24]: 77 mL/min/kg | concentration [25]: < 40 nM | bioavailability [26]: 22% | Drug metabolism [18]: Metabolite_Detected | Drug metabolism [20]: Metabolite_Detected

N#Cc1cnc(NC(=O)N2CCCc3ccc(C=O)nc32)nc1
Drug metabolism [27]: Metabolite_Detected | Drug metabolism [28]: Metabolite_Detected | recovery at 2 h, 10 µM [12]: < 10% | Drug metabolism [18]: Metabolite_Detected | metabolised at 1 h, 10 µM [29]: 80% | Drug metabolism [20]: Metabolite_Detected

CC(C)Oc1cc(NC(=O)N2CCCc3cc(CN4CCCC4=O)c(C=O)nc32)ncc1C#N
bioavailability ([1]; Crl:CD (SD)): 33% | AUC at 24 h [30]: 4.54 µM·h | AUC [31]: 20.082 µM·h | AUC [32]: 5.05 µM·h | Vd [3]: 7.2 L/kg | half-life [33]: 5.2 h | AUC/dose [34]: 1768 nM·h | Tmax [35]: 2 h | clearance [36]: 8 mL/min/kg | AUC at 144 h [37]: 8250 ng·h/mL | half-life [7]: 14.2 h | F [38]: 25% | AUC at 24 h [39]: 5400 ng·h/mL | solubility thermodynamic at […] [40]: < 6 µM | AUC at 24 h [41]: 2830 ng·h/mL | AUC at 24 h [42]: 18700 ng·h/mL | half-life [43]: 8.1 h | Drug absorption [44]: Active | AUC/dose [45]: 587 nM·h | Vd [46]: 1.1 L/kg | concentration at 336 h [47]: 500 nM | clearance [15]: 21 mL/min/kg | Vd [48]: 1.4 L/kg
